Experimental data reported in patent US12208092B2, “Compositions and methods for administering paltusotine to patients with hepatic impairment” (CRINETICS PHARMACEUTICALS, INC., priority 2023, dated 2025).
Converted amounts (≈) assume the structure as drawn.

Legend:
plasma IGF-1 = experiment: chronic oral 14-day administration, suppression of IGF-1 in rat; format: in vivo
Protocol: (§1) The in vivo pharmacological efficacy of paltusotine has been examined in rat and dog. In the rat, acute efficacy was evaluated by examining the suppression of plasma GH in response to a challenge with rat growth hormone releasing hormone (rGHRH). […] The effects of chronic, oral, 14-day administration of paltusotine were evaluated by measuring the sustained suppression of IGF-1 in the rat.

plasma GH = experiment: suppression of plasma GH after rGHRH challenge in rat; format: in vivo
Protocol: as §1

[1] = plasma exposure in 14-day rat study; format: in vivo; settings: 10 mg/kg/day oral
[2] = test system: large panel of other known receptors, channels, and enzymes
[3] = SAD/MAD oral administration in healthy adult male subjects; format: in vivo, human; settings: 1.25 to 20 mg (SAD) and 5 to 30 mg (MAD)
Protocol: A dose of 20 mg paltusotine was chosen for the oral dose in the ADME study as a possible therapeutic dose estimated by PD activities of suppression of growth hormone releasing hormone (GHRH) stimulated GH secretion.

N#Cc1cccc(-c2ccc3ncc(-c4cc(F)cc(F)c4)c(N4CCC(N)CC4)c3c2)c1O [paltusotine, 3-[4-(4-amino-1-piperidyl)-3-(3,5-difluorophenyl)-6-quinolyl]-2-hydroxybenzonitrile]
dose efficacious in suppressing plasma IGF-1 for up to 14 days (plasma IGF-1): > 10 mg/kg/day
EC50 (plasma GH; Rattus norvegicus, po, read-out: plasma EC50 for GH suppression): 0.011 µg/mL (≈ 0.0241 µM)
doses that significantly and dose dependently suppressed GH relative to vehicle (plasma GH; oral, acute, rGHRH challenge): ≥ 3 mg/kg
AUC(0-t) ([1]; read-out: day-last mean plasma AUC0-24): 975 ng·h/mL
Cmax ([1]; read-out: day-last mean plasma Cmax): 127 ng/mL
selectivity for SST2 over panel of other receptors, channels, and enzymes [2]: > 2000 fold
AUC dose dependence [3]: increased dose-dependently
